From ChEMBL document CHEMBL6177961, “Structure-Based Analysis of Semisynthetic Anti-TB Rufomycin Analogues” (J Nat Prod, 2025)
In brackets after ≈: the same amount, converted by molar mass.

How the values were obtained:
[1] = test system: Mycobacterium tuberculosis; assay: Antimycobacterial activity against Mycobacterium tuberculosis H37Rv ATCC 27294 assessed as reduction in bacterial growth by microplate alamar blue assay; assay type: functional
Mycobacterium avium = assay: Antimycobacterial activity against Mycobacterium avium assessed as reduction in bacterial growth; assay type: functional
[2] = test system: Mycobacteroides abscessus; assay: Antimycobacterial activity against Mycobacterium abscessus ATCC 19977 assessed as reduction in bacterial growth by microplate Alamar blue assay; assay type: functional
[3] = Cytotoxicity against African green monkey Vero cells; assay type: toxicity, cell-based; details: African green monkey (Chlorocebus sabaeus)
[4] = Selectivity index, ratio of IC50 for cytotoxicity against African green monkey Vero cells to MIC for antimycobacterial activity against Mycobacterium tuberculosis H37Rv ATCC 27294; assay type: toxicity, cell-based; details: read-out: Selectivity Index
[5] = Binding affinity to N-terminal Mycobacterium tuberculosis ClpC1 assessed as dissociation constant by SPR analysis
[6] = Binding affinity to full length Mycobacterium tuberculosis ClpC1 assessed as dissociation constant by SPR analysis

Row | SMILES | MIC [1] [µM] | MIC (Mycobacterium avium) [µM] | MIC [2] [µM] | IC50 [3] [nM] | selectivity ratio [4] | Kd [5] [nM] | Kd [6] [nM]
1 | C/C=C/C[C@@H]1NC(=O)[C@H](CC(C)C)N2C(=O)[C@H](CC(C)[C@H]2OC)N(C)C(=O)[C@H](C)NC(=O)[C@H](Cc2ccc(O)c([N+](=O)[O-])c2)NC(=O)[C@H](CC(C)C)N(C)C(=O)[C@H](Cc2cn(C(C)(C)[C@H]3CO3)c3ccccc23)NC1=O (some centres not stated) | 0.002 (≈ 0.00211 µg/mL) | 1.4 (≈ 1.48 µg/mL) | 0.15 (≈ 0.158 µg/mL) | > 100000 | > 53000 |  | 
2 | C/C=C/C[C@@H]1NC(=O)[C@H](CC(C)C)N2C(=O)[C@H](CC(C)[C@H]2OCCC)N(C)C(=O)[C@H](C)NC(=O)[C@H](Cc2ccc(O)c([N+](=O)[O-])c2)NC(=O)[C@H](CC(C)C)N(C)C(=O)[C@H](Cc2cn(C(C)(C)[C@H](O)CCl)c3ccccc23)NC1=O (some centres not stated) | 0.75 (≈ 0.841 µg/mL) | > 10 | 2.1 (≈ 2.35 µg/mL) | > 10000 | > 13 |  | 
3 | C/C=C/C[C@@H]1NC(=O)[C@H](CC(C)C)N2C=C(C)C[C@@H](C2=O)N(C)C(=O)[C@H](C)NC(=O)[C@H](Cc2ccc3c(c2)N=C(C)CC(C)(C)O3)NC(=O)[C@H](CC(C)C)N(C)C(=O)[C@H](Cc2cn(C(C)(C)[C@H](O)CCl)c3ccccc23)NC1=O | 0.79 (≈ 0.878 µg/mL) | > 10 | 4.5 (≈ 5 µg/mL) | > 100000 | > 130 |  | 
4 | C/C=C/C[C@@H]1NC(=O)[C@H](CC(C)C)N2C(=O)[C@H](CC(C)[C@H]2O)N(C)C(=O)[C@H](C)NC(=O)[C@H](Cc2ccc(OC(C)=O)c([N+](=O)[O-])c2)NC(=O)[C@H](CC(C)C)N(C)C(=O)[C@H](Cc2cn(C(C)(C)[C@H]3CO3)c3ccccc23)NC1=O (mixture of isomers) |  |  |  |  | 11000 |  | 
5 | C/C=C/C[C@@H]1NC(=O)[C@H](CC(C)C)N2C=C(C)C[C@@H](C2=O)N(C)C(=O)[C@H](C)NC(=O)[C@H](Cc2ccc3ocnc3c2)NC(=O)[C@H](CC(C)C)N(C)C(=O)[C@H](Cc2cn(C(C)(C)[C@H](O)CCl)c3ccccc23)NC1=O | 0.12 (≈ 0.125 µg/mL) | > 10 | 2.4 (≈ 2.5 µg/mL) | > 100000 | > 830 | 300 | 430
6 | C/C=C/C[C@@H]1NC(=O)[C@H](CC(C)C)N2C(=O)[C@H](C[C@H](C)[C@H]2OCC)N(C)C(=O)[C@H](C)NC(=O)[C@H](Cc2ccc(O)c([N+](=O)[O-])c2)NC(=O)[C@H](CC(C)C)N(C)C(=O)[C@H](Cc2cn(C(C)(C)[C@H](O)CCl)c3ccccc23)NC1=O | 0.005 (≈ 0.00553 µg/mL) | 2.2 (≈ 2.43 µg/mL) | 0.49 (≈ 0.542 µg/mL) | > 100000 | > 19000 | 11 | 87
7 | C/C=C/C[C@@H]1NC(=O)[C@H](CC(C)C)N2C(=O)[C@H](CC(C)[C@H]2OC)N(C)C(=O)[C@H](C)NC(=O)[C@H](Cc2ccc(OC(C)=O)c([N+](=O)[O-])c2)NC(=O)[C@H](CC(C)C)N(C)C(=O)[C@H](Cc2cn(C(C)(C)[C@H]3CO3)c3ccccc23)NC1=O (some centres not stated) | 0.001 (≈ 0.0011 µg/mL) | 0.14 (≈ 0.154 µg/mL) | 0.13 (≈ 0.143 µg/mL) | > 100000 | > 71000 | 40 | 44
8 | C/C=C/C[C@@H]1NC(=O)[C@H](CC(C)C)N2C=C(C)C[C@@H](C2=O)N(C)C(=O)[C@H](C)NC(=O)[C@H](Cc2ccc(OC(=O)c3ccccc3)c([N+](=O)[O-])c2)NC(=O)[C@H](CC(C)C)N(C)C(=O)[C@H](Cc2cn(C(C)(C)[C@H](O)CCl)c3ccccc23)NC1=O | 0.052 (≈ 0.0606 µg/mL) | > 10 | 2 (≈ 2.33 µg/mL) | > 100000 | > 1900 |  | 
9 | CO[C@H]1/C=C/O[C@@]2(C)Oc3c(C)c(O)c4c(O)c(c(/C=N/N5CCN(C)CC5)c(O)c4c3C2=O)NC(=O)/C(C)=C\C=C\[C@H](C)[C@H](O)[C@@H](C)[C@@H](O)[C@@H](C)[C@H](OC(C)=O)[C@@H]1C [RIFAMPIN] | 0.03 (≈ 0.0247 µg/mL) |  | > 4 | > 122000 |  |  | 
10 | C/C=C/C[C@@H]1NC(=O)[C@H](CC(C)C)N2C(=O)[C@H](CC(C)[C@H]2OC)N(C)C(=O)[C@H](C)NC(=O)[C@H](Cc2ccc(OC)c([N+](=O)[O-])c2)NC(=O)[C@H](CC(C)C)N(C)C(=O)[C@H](Cc2cn(C(C)(C)[C@H](O)COC)c3ccccc23)NC1=O (some centres not stated) | 0.023 (≈ 0.0254 µg/mL) | 4.5 (≈ 4.96 µg/mL) | 0.52 (≈ 0.573 µg/mL) | 83000 | 3600 | 37 | 40
11 | C/C=C/C[C@@H]1NC(=O)[C@H](CC(C)C)N2C(=O)[C@H](CC(C)[C@H]2O)N(C)C(=O)[C@H](C)NC(=O)[C@H](Cc2ccc(OC)c([N+](=O)[O-])c2)NC(=O)[C@H](CC(C)C)N(C)C(=O)[C@H](Cc2cn(C(C)(C)[C@H]3CO3)c3ccccc23)N(C)C1=O (some centres not stated) | 0.054 (≈ 0.0578 µg/mL) | 9 (≈ 9.63 µg/mL) | 0.58 (≈ 0.621 µg/mL) | > 100000 | > 1900 | 120 | 130
12 | C/C=C/C[C@@H]1NC(=O)[C@H](CC(C)C)N2C(=O)[C@H](CC(C)[C@H]2OC)N(C)C(=O)[C@H](C)NC(=O)[C@H](Cc2ccc(OC)c([N+](=O)[O-])c2)NC(=O)[C@H](CC(C)C)N(C)C(=O)[C@H](Cc2cn(C(C)(C)[C@H]3CO3)c3ccccc23)NC1=O (some centres not stated) | 0.006 (≈ 0.00642 µg/mL) | 1.2 (≈ 1.28 µg/mL) | 0.53 (≈ 0.567 µg/mL) | 100000 | 17000 |  | 64
13 | C/C=C/C[C@@H]1NC(=O)[C@H](CC(C)C)N2C(=O)[C@H](CC(C)[C@H]2OC)N(C)C(=O)[C@H](C)NC(=O)[C@H](Cc2ccc(OC(C)=O)c([N+](=O)[O-])c2)NC(=O)[C@H](CC(C)C)N(C)C(=O)[C@H](Cc2cn(C(C)(C)[C@H](O)CCl)c3ccccc23)NC1=O (some centres not stated) | 0.005 (≈ 0.00567 µg/mL) | 0.21 (≈ 0.238 µg/mL) | 0.21 (≈ 0.238 µg/mL) | > 100000 | > 20000 | 38 | 42
14 | C/C=C/C[C@@H]1NC(=O)[C@H](CC(C)C)N2C(=O)[C@H](CC(C)[C@H]2OC)N(C)C(=O)[C@H](C)NC(=O)[C@H](Cc2ccc(OC)c([N+](=O)[O-])c2)NC(=O)[C@H](CC(C)C)N(C)C(=O)[C@H](Cc2cn(C(C)(C)[C@H]3CO3)c3ccccc23)N(C)C1=O (some centres not stated) | 0.065 (≈ 0.0705 µg/mL) | 9 (≈ 9.76 µg/mL) | 2.1 (≈ 2.28 µg/mL) | 90000 | 1400 |  | 
15 | C/C=C/C[C@@H]1NC(=O)[C@H](CC(C)C)N2C(=O)[C@H](CC(C)[C@H]2OC(C)=O)N(C)C(=O)[C@H](C)NC(=O)[C@H](Cc2ccc(OC(C)=O)c([N+](=O)[O-])c2)NC(=O)[C@H](CC(C)C)N(C)C(=O)[C@H](Cc2cn(C(C)(C)[C@H]3CO3)c3ccccc23)NC1=O (some centres not stated) | 0.004 (≈ 0.00451 µg/mL) | 0.96 (≈ 1.08 µg/mL) | 0.27 (≈ 0.304 µg/mL) | > 100000 | > 23000 |  | 16
16 | C/C=C/C[C@@H]1NC(=O)[C@H](CC(C)C)N2C(=O)[C@H](CC(C)[C@H]2OC)N(C)C(=O)[C@H](C)NC(=O)[C@H](Cc2ccc(O)c([N+](=O)[O-])c2)NC(=O)[C@H](CC(C)C)N(C)C(=O)[C@H](Cc2cn(C(C)(C)[C@H](O)CCl)c3ccccc23)NC1=O (some centres not stated) | 0.005 (≈ 0.00546 µg/mL) | 0.4 (≈ 0.437 µg/mL) | 0.25 (≈ 0.273 µg/mL) | > 100000 | > 20000 | 66 | 96
17 | C/C=C/C[C@@H]1NC(=O)[C@H](CC(C)C)N2C=C(C)C[C@@H](C2=O)N(C)C(=O)[C@H](C)NC(=O)[C@H](Cc2ccc(O)c([N+](=O)[O-])c2)NC(=O)[C@H](CC(C)C)N(C)C(=O)[C@H](Cc2cn(C(C)(C)[C@H](O)CCl)c3ccccc23)NC1=O | 0.019 (≈ 0.0202 µg/mL) | 4.8 (≈ 5.09 µg/mL) | 1.1 (≈ 1.17 µg/mL) | > 100000 |  |  | 
18 | C/C=C/C[C@@H]1NC(=O)[C@H](CC(C)C)N2C(=O)[C@H](C[C@H](C)[C@@H]2OCCCC)N(C)C(=O)[C@H](C)NC(=O)[C@H](Cc2ccc(O)c([N+](=O)[O-])c2)NC(=O)[C@H](CC(C)C)N(C)C(=O)[C@H](Cc2cn(C(C)(C)[C@H](O)CCl)c3ccccc23)NC1=O | 0.048 (≈ 0.0545 µg/mL) |  | 4.2 (≈ 4.77 µg/mL) | > 100000 | > 2100 | 27 | 29
19 | C/C=C/C[C@@H]1NC(=O)[C@H](CC(C)C)N2C(=O)[C@H](CC(C)[C@H]2O)N(C)C(=O)[C@H](C)NC(=O)[C@H](Cc2ccc(O)c([N+](=O)[O-])c2)NC(=O)[C@H](CC(C)C)N(C)C(=O)[C@H](Cc2cn(C(C)(C)[C@H]3CO3)c3ccccc23)NC1=O (mixture of isomers) | 0.019 | 1.2 | 0.29 |  |  | 83 | 110
20 | C/C=C/C[C@@H]1NC(=O)[C@H](CC(C)C)N2C=C(C)C[C@@H](C2=O)N(C)C(=O)[C@H](C)NC(=O)[C@H](Cc2ccc(O)c(N)c2)NC(=O)[C@H](CC(C)C)N(C)C(=O)[C@H](Cc2cn(C(C)(C)[C@H](O)CCl)c3ccccc23)NC1=O | 0.89 (≈ 0.917 µg/mL) | > 10 | 8.3 (≈ 8.55 µg/mL) | > 100000 | > 110 |  | 
21 | C/C=C/C[C@@H]1NC(=O)[C@H](CC(C)C)N2C=C(C)C[C@@H](C2=O)N(C)C(=O)[C@H](C)NC(=O)[C@H](Cc2ccc(OC)c([N+](=O)[O-])c2)NC(=O)[C@H](CC(C)C)N(C)C(=O)[C@H](Cc2cn(C(C)(C)[C@H]3CO3)c3ccccc23)NC1=O | 0.073 (≈ 0.0758 µg/mL) | > 10 | 2.3 (≈ 2.39 µg/mL) | 98000 | 1300 |  | 
22 | C/C=C/C[C@@H]1NC(=O)[C@H](CC(C)C)N2C=C(C)C[C@@H](C2=O)N(C)C(=O)[C@H](C)NC(=O)[C@H](Cc2ccc(OC(C)=O)c([N+](=O)[O-])c2)NC(=O)[C@H](CC(C)C)N(C)C(=O)[C@H](Cc2cn(C(C)(C)[C@H](O)CCl)c3ccccc23)NC1=O | 0.022 (≈ 0.0243 µg/mL) | 5.8 (≈ 6.4 µg/mL) | 1.1 (≈ 1.21 µg/mL) | > 100000 | > 4500 |  | 
23 | NNC(=O)c1ccncc1 [ISONIAZID] | 0.46 (≈ 0.0631 µg/mL) |  | > 8 |  |  |  | 
24 | C/C=C/C[C@@H]1NC(=O)[C@H](CC(C)C)N2C(=O)[C@H](C[C@@H](C)[C@H]2OCCCC)N(C)C(=O)[C@H](C)NC(=O)[C@H](Cc2ccc(O)c([N+](=O)[O-])c2)NC(=O)[C@H](CC(C)C)N(C)C(=O)[C@H](Cc2cn(C(C)(C)[C@H](O)CCl)c3ccccc23)NC1=O | 4.3 (≈ 4.88 µg/mL) |  | > 10 | > 100000 |  | 210 | 170
